Source: ChEMBL document CHEMBL1641405, “Click chemistry inspired one-pot synthesis of 1,4-disubstituted 1,2,3-triazoles and their Src kinase inhibitory activity” (Bioorg Med Chem Lett, 2011)

Key:
[1] = target: T1, Proto-oncogene tyrosine-protein kinase Src (Homo sapiens, UniProt P12931); assay: Inhibition of c-Src at 75 uM after 60 mins
[2] = target: T1, Proto-oncogene tyrosine-protein kinase Src; assay: Inhibition of c-Src after 60 mins
[3] = target: Tyrosine-protein kinase CSK (Homo sapiens) (UniProt P41240); assay: Inhibition of human Cck
[4] = target: Tyrosine-protein kinase Lck (Homo sapiens, UniProt P06239); assay: Inhibition of human activated Lck
[5] = target: Epidermal growth factor receptor (Homo sapiens, UniProt P00533); assay: Inhibition of human EGFR
Chain of Epidermal growth factor receptor (P00533 whole entry): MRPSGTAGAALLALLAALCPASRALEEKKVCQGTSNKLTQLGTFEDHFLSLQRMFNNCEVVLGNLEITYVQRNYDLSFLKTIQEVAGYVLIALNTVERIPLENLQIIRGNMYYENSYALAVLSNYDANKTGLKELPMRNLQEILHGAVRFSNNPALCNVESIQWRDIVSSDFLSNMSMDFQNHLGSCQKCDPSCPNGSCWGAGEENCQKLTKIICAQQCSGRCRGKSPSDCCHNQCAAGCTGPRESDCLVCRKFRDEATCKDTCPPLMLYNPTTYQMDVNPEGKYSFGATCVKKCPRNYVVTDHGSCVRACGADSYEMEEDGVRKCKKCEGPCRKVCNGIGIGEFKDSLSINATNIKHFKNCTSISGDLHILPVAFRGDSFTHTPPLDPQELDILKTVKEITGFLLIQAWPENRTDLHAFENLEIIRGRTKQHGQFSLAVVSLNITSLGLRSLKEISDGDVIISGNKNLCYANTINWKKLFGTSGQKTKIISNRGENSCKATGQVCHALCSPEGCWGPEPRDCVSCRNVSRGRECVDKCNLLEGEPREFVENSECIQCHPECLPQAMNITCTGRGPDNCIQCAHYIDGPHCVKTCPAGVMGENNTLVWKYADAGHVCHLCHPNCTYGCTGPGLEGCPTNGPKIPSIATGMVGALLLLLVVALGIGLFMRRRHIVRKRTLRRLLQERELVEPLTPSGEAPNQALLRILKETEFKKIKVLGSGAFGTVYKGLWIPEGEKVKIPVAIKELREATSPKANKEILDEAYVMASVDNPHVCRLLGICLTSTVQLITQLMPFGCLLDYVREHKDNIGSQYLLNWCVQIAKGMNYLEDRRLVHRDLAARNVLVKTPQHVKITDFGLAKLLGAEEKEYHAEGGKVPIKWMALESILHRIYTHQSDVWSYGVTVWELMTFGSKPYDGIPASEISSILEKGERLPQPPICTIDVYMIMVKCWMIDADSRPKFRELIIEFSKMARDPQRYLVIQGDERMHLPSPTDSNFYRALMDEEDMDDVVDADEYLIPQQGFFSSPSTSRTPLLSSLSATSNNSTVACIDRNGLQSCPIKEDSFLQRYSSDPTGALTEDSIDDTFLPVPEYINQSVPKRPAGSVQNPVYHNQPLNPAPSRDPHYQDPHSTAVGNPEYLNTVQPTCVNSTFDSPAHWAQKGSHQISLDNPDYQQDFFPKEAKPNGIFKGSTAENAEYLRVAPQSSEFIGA

T1 sequence (P12931 2-536 limits assumed): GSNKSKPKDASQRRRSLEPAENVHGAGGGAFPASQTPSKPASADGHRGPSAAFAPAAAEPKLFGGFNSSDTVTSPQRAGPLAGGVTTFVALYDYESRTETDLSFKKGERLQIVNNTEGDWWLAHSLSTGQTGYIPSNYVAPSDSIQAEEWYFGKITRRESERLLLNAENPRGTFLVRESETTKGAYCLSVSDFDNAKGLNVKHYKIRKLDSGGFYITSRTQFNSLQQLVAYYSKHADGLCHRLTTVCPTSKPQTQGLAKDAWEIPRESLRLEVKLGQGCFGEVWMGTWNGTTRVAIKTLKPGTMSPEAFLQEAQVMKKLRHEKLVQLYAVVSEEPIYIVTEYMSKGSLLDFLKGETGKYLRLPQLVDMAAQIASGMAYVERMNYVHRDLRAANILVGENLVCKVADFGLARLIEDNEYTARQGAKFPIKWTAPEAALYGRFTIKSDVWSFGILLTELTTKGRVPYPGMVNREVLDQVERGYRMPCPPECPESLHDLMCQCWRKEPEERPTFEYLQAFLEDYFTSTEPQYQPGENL
Chain of Tyrosine-protein kinase CSK (Homo sapiens) (P41240 whole entry, looked up): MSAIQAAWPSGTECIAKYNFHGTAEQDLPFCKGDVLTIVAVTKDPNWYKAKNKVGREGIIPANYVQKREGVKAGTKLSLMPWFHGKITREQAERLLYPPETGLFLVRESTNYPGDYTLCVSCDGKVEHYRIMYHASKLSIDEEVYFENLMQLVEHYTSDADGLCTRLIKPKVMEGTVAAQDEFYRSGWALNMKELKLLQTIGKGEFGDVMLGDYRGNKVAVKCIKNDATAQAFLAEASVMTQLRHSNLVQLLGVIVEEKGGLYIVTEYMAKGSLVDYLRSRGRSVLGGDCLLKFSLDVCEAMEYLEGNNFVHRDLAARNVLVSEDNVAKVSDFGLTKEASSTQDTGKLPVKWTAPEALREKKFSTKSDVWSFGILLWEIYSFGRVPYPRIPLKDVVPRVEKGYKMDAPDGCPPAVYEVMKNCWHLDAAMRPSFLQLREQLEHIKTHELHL
Chain of Tyrosine-protein kinase Lck (P06239 whole entry): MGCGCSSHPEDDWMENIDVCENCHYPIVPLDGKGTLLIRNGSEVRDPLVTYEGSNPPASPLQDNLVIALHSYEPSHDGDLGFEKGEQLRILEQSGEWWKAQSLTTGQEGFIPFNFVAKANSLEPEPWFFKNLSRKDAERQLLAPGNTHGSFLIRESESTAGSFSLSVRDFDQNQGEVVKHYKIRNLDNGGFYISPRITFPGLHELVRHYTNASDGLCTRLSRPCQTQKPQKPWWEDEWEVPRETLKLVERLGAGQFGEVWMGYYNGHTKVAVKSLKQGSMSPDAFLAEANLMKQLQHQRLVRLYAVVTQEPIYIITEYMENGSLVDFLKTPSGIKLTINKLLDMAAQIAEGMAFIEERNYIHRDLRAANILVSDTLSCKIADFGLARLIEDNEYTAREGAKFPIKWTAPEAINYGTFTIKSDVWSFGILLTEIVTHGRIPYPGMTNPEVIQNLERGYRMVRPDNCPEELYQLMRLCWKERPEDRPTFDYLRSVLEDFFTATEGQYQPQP

COc1ccc(-c2cn(CC(=O)c3ccc(Cl)cc3)nn2)cc1 was tested, and the inhibition [1] was < 10%.

With O=C1CCCC(n2cc(-c3ccccc3)nn2)C1 (configuration not stated) the inhibition [1] was < 10%.

For O=C(/C=C/c1ccccc1)Cn1cc(-c2ccccc2)nn1, the IC50 [2] was > 100 µM.

Cc1cc(-c2cn(CC(=O)c3ccccc3)nn2)ccc1F was tested, and the IC50 [2] was 81 µM.

For COC(=O)Cn1cc(-c2ccccc2)nn1, the IC50 [2] was > 100 µM.

In the case of O=C(Cn1cc(CCCCCl)nn1)c1ccc(Br)cc1, the IC50 [2] is reported as > 100 µM.

O=C(Cn1cc(-c2ccccc2)nn1)c1ccccc1 was tested, and the IC50 [2] was > 100 µM.

Cc1ccc(-c2cn(CC(=O)c3ccc(Cl)cc3)nn2)cc1 gave an IC50 [2] of 109 µM.

For O=C(Cn1cc(-c2ccccc2)nn1)c1ccc(-c2cc3ccccc3oc2=O)cc1, the IC50 [2] was 89.5 µM.

For COc1ccc(C(=O)Cn2cc(-c3ccccc3)nn2)cc1, the IC50 [2] was > 100 µM.

CCNC(=O)Cn1cc(-c2ccccc2)nn1 was tested, and the IC50 [2] was > 150 µM.

For O=C(Cn1cc(-c2ccc(F)cc2)nn1)c1ccc(Cl)cc1, the inhibition [1] was < 10%.

In the case of O=C1CCCCC1n1cc(-c2ccccc2)nn1 (configuration not stated), the IC50 [2] is reported as 43.2 µM.

In the case of Cc1ccc(-c2cn(CC(=O)c3ccccc3)nn2)cc1, the IC50 [2] is reported as 41.6 µM.

With O=C1CCCCC1n1cc(-c2ccsc2)nn1 (configuration not stated) the inhibition [1] was < 10%.

In the case of O=C(Cn1cc(-c2ccccn2)nn1)c1ccccc1, the inhibition [1] is reported as < 10%.

O=C1CCCC1n1cc(-c2ccsc2)nn1 (configuration not stated) was tested, and the inhibition [1] was < 10%.

With COc1ccc(C(=O)Cn2cc(-c3cccc(C)c3)nn2)cc1 the IC50 [2] was 72.8 µM.

In the case of O=C(Cn1cc(-c2ccsc2)nn1)c1ccc(Cl)cc1, the IC50 [2] is reported as > 150 µM.

For O=C(Cn1cc(-c2ccc(F)cc2)nn1)c1ccc(Br)cc1, the inhibition [1] was < 10%.

O=C1CCC(n2cc(-c3ccccc3)nn2)C1 (configuration not stated) was tested, and the inhibition [1] was < 10%.

With Cc1ccc(-c2cn(CC(=O)c3ccc(Br)cc3)nn2)cc1 the inhibition [1] was < 10%.

For O=C(Cn1cc(-c2ccccc2)nn1)c1cccs1, the IC50 [2] was 32.5 µM.

For Cc1ccc(-c2cn(C3CCCCC3=O)nn2)cc1 (configuration not stated), the IC50 [3] was > 100 µM, the IC50 [2] was 33.9 µM and the IC50 [4] was > 100 µM. For the same compound, the IC50 [5] was > 100 µM.

Compound Cc1ccc(C(=O)Cn2cc(-c3ccc(F)c(C)c3)nn2)cc1 has an IC50 [2] of 82.3 µM.

In the case of COc1ccc(-c2cn(C3CCCC3=O)nn2)cc1 (configuration not stated), the inhibition [1] is reported as < 10%.

O=C(Cn1cc(-c2ccccc2)nn1)c1ccc(Cl)cc1 was tested, and the IC50 [2] was 139 µM.

In the case of O=C1CCCC1n1cc(-c2ccccc2)nn1 (configuration not stated), the IC50 [2] is reported as 106 µM.

CC(=O)Cn1cc(-c2ccccc2)nn1 was tested, and the IC50 [2] was > 150 µM.

In the case of CCCCc1cn(CC(=O)c2ccccc2)nn1, the inhibition [1] is reported as < 10%.

With Cc1ccc(-c2cn(CC(=O)c3cc4ccccc4oc3=O)nn2)cc1 the IC50 [2] was > 150 µM.

For CC(=O)Cn1cc(-c2ccc(C)cc2)nn1, the IC50 [2] was > 150 µM.

Compound Cc1ccc(-c2cn(C3CCCCCC3=O)nn2)cc1 (configuration not stated) has an IC50 [2] of 66.1 µM.

COc1ccc(-c2cn(C3CCCCC3=O)nn2)cc1 (configuration not stated) was tested, and the inhibition [1] was < 10%.

In the case of Cc1ccc(-c2cn(C3CCCC3=O)nn2)cc1 (configuration not stated), the IC50 [2] is reported as 62.1 µM.

Compound Cc1ccc(C(=O)Cn2cc(-c3ccc(C)cc3)nn2)cc1 has an IC50 [2] of 49.8 µM.

For CCCCc1cn(CC(=O)c2ccc(Br)cc2)nn1, the inhibition [1] was < 10%.

In the case of O=C1CCCC1n1cc(-c2ccc(F)cc2)nn1 (configuration not stated), the inhibition [1] is reported as < 10%.

O=C1CCCCC1n1cc(-c2ccc(F)cc2)nn1 (configuration not stated) was tested, and the inhibition [1] was < 10%.
